SMILES strings stand for the structures. pEC50, pIC50: −log10 of the molar value.

Series [1] has as its system MM1.S. Put plainly: Antiproliferative activity against human MM1.S cells assessed as reduction in cell viability after 144 hrs. The class given is functional, cell-based.
A short description of series [2]: Stability in human liver microsomes assessed as parent compound remaining measured after 30 mins. Format: ADME, Microsome. The following applies: liver microsomes, read-out: Stabilty. Background: Liver microsomes are vesicles of endoplasmic reticulum, rich in cytochrome P450 enzymes.
Series [3] in a line: Stability in mouse liver microsomes assessed as parent compound remaining measured after 30 mins. The class given is ADME, Microsome. The settings on record: liver microsomes, read-out: Stabilty.
Series [4] has as its target Histone deacetylase 1 (Homo sapiens) (UniProt Q13547). Kind of series: Inhibition of human HDAC1 at 1uM using RHKKAc as substrate by fluorescence method relative to control.
The target in series [5] is Lysine-specific histone demethylase 1A (Homo sapiens, UniProt O60341). Kind of series: Inhibition of LSD1 (unknown origin). The settings on record: read-out: IC50.
Series [6] deals with T1, Protein deacetylase HDAC6 (Homo sapiens, UniProt Q9UBN7).
T1 sequence (Q9UBN7 whole entry): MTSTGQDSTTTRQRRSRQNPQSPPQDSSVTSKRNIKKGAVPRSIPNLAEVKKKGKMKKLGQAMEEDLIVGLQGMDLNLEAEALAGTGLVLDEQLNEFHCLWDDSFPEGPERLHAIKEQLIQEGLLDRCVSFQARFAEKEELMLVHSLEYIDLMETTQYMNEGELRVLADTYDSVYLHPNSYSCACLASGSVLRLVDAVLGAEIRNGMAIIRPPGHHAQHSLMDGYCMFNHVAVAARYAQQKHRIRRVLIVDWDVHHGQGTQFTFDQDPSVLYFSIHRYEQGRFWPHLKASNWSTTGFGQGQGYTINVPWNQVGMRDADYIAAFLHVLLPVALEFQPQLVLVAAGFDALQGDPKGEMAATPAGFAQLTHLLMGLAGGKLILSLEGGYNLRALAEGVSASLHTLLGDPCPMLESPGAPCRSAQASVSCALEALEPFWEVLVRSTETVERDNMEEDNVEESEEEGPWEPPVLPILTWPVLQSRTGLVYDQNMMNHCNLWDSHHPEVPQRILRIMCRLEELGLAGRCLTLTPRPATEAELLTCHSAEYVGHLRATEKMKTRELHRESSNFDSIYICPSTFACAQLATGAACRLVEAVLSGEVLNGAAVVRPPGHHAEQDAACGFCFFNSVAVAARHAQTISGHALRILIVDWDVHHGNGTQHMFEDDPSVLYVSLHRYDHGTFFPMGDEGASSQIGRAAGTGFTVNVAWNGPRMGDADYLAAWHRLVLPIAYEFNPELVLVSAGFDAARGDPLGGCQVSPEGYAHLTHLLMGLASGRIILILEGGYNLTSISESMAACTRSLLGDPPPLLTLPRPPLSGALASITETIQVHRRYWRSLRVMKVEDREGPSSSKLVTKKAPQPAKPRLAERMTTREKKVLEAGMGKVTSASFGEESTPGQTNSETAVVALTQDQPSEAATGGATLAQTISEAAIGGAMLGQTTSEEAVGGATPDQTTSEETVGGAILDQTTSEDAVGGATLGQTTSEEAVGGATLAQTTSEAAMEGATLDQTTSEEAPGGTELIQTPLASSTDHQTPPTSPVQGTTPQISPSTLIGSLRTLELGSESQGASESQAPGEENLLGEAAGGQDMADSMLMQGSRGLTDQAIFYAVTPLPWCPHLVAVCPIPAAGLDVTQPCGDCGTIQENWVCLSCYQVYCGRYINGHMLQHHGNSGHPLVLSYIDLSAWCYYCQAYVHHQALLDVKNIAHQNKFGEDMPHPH
Kind of series: Inhibition of human HDAC6 (unknown origin) using RHKKAc as substrate by fluorescence method. The following applies: read-out: IC50.

The test system of series [7] is MM1.S. Put plainly: Antitumour activity against human MM1.S cells xenografted in SCID mouse assessed as tumour growth inhibition at 25 mg/kg, po for 12 days relative to control. The class given is functional. The following applies: 288 h, time 12 day, read-out: TGI. For orientation: Xenograft models place foreign cells or tissue in a host animal.

Chain of Histone deacetylase 1 (Homo sapiens) (Q13547 whole entry): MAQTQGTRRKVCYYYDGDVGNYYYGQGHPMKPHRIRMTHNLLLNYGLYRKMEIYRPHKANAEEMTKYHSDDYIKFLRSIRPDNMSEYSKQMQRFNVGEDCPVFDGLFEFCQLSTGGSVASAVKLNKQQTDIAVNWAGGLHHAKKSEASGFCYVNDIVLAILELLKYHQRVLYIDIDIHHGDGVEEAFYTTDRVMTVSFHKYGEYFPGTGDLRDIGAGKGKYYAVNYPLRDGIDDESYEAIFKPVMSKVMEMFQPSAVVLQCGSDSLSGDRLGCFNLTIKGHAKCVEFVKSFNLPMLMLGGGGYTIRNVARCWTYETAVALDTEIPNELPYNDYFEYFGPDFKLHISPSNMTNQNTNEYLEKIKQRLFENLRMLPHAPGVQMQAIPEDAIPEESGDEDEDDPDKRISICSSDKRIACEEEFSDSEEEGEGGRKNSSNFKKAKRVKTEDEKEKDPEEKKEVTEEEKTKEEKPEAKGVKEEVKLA

As a reminder, the pEC50 is −log10 of the EC50, conventionally taken in molar units. `O=C(NO)c1ccc(CCCN2CCC(CN[C@H]3C[C@@H]3c3ccccc3)CC2)cc1` [listing 1 of 2 here]: the pEC50 with MM1.S [1] is 8.40. Besides, the remaining at 0.5 h in series [2] came to 51%; in series [3] it was 50%.
As a reminder, the inhibition is the drop in the measured response relative to a control, in per cent. `O=C(NO)c1ccc(CCCN2CCC(CN[C@@H]3C[C@H]3c3ccccc3)CC2)cc1`: the pEC50 with MM1.S [1] is 8.52. The remaining at 0.5 h in series [2] amounted to 38%; in series [3] it was 26%. The inhibition in series [4] stood at 57.6%.
Take `O=C(NO)c1ccc(CCCN2CCC(CN[C@H]3C[C@@H]3c3ccccc3)CC2)cc1` [listing 2 of 2 here]: the inhibition in series [4] stood at 2.06%.
One may read the pIC50 as the negative decadic logarithm of the IC50, by convention in mol/L. `O=C(NO)c1ccc(CCCN2CCC(CN[C@H]3C[C@@H]3c3ccc(OCc4ccc(F)cc4)cc3)CC2)cc1` (racemic): the remaining at 0.5 h was found to be 79% in series [2] and 56% in series [3]. In series [4], the inhibition is -1.79%. Further, the pIC50 is 8.40 in series [5] and 7.92 in series [6].
The corresponding values for `COc1ccc([C@H]2C[C@@H]2NCC2CCN(CCCc3ccc(C(=O)NO)cc3)CC2)cc1` (racemic) are 74%, 91%, 46.7%, 8.22 and 7.42.
As for `O=C(NO)c1ccc(CCCN2CCc3cc(CN[C@H]4C[C@@H]4c4ccc(F)cc4)ccc3C2)cc1` (racemic), the remaining at 0.5 h in series [2] was 72%; in series [3] it was 32%.
In the case of `COc1ccc([C@H]2C[C@@H]2NCc2cn3c(n2)CN(CCCc2ccc(C(=O)NO)cc2)CC3)cc1` (racemic), the remaining at 0.5 h was 73% in series [2] and less than 5% in series [3]. Also, the inhibition in series [4] stood at 26.6%. In addition, the pIC50 in series [5] was 5.96; in series [6], 7.55.
With `N#Cc1ccc(-c2ccc([C@H]3C[C@@H]3NCC3CCN(CCCc4ccc(C(=O)NO)cc4)CC3)cc2)cc1` (racemic), the remaining at 0.5 h came out at 76% in series [2] and 75% in series [3]. The negative-log IC50 (pIC50) in series [5] was 7.49.
Take `CN(CC1CCN(CCCc2ccc(C(=O)NO)cc2)CC1)[C@H]1C[C@@H]1c1ccccc1` (racemic): in the series with MM1.S [1], the pEC50 is 7.32. Further, the inhibition in series [4] came to 8.37%. Also, the negative-log IC50 (pIC50) in series [5] was 6.33.
Turning to `O=C(NO)c1ccc(CCCN2CC(CN[C@H]3C[C@@H]3c3ccccc3)C2)cc1` (racemic), in the series with MM1.S [1], the negative logarithm of the EC50 (pEC50) is 7.60. Further, the remaining at 0.5 h was 84% in series [2] and less than 5% in series [3]. In series [4], the inhibition was found to be 0.7%. The values for the pIC50 in series [5] and in series [6] were 7.54 and 6.74, respectively.
Regarding `O=C(NO)c1ccc(CCN2CCC(CN[C@H]3C[C@@H]3c3ccccc3)CC2)cc1` (racemic), in the series on MM1.S [1], the pEC50 is 7.55. In addition, the remaining at 0.5 h in series [2] amounted to 77%; in series [3] it was 68%. Further, in series [4], the inhibition was 50.7%. Moreover, the values for the pIC50 in series [5] and in series [6] were 7.82 and 6.31, respectively.
As to `O=C(NO)c1csc(CCCN2CCC(CN[C@H]3C[C@@H]3c3ccccc3)CC2)n1` (racemic), the negative logarithm of the EC50 (pEC50) with MM1.S [1] was less than 5.00. The remaining at 0.5 h in series [2] came to 88%; in series [3], 95%. The inhibition in series [4] was -0.22%. Further, the pIC50 in series [5] is 7.59; in series [6], less than 5.00.
Take `CN(C)CCNC(=O)c1ccc([C@H]2C[C@@H]2NCC2CCN(CCCc3ccc(C(=O)NO)cc3)CC2)cc1` (racemic): the remaining at 0.5 h in series [2] stood at 40%; in series [3] it was 36%. The inhibition in series [4] was determined as 58.1%. For the same compound, the pIC50 in series [5] was 7.66; in series [6], 6.89.
Turning to `O=C(NO)c1ccc(CCCN2CCC(CN[C@H]3C[C@@H]3c3ccc(C(=O)N4CCOCC4)cc3)CC2)cc1` (racemic), the remaining at 0.5 h in series [2] was 89%; in series [3], 82%. Also, the inhibition in series [4] worked out at 47.6%. Further, in series [5], the negative logarithm of the IC50 (pIC50) was 7.66.
As for `Cn1cc(-c2ccc([C@H]3C[C@@H]3NCC3CCN(CCCc4ccc(C(=O)NO)cc4)CC3)cc2)cn1` (racemic), the pEC50 in the series with MM1.S [1] was 8.15. Besides, the remaining at 0.5 h in series [2] turned out to be 77%; in series [3] it was 66%. Moreover, in series [4], the inhibition was found to be 41.6%. The results for the negative-log IC50 (pIC50) in series [5] and in series [6] were 7.37 and 7.18, respectively.
`Cc1noc(C)c1-c1ccc([C@H]2C[C@@H]2NCC2CCN(CCCc3ccc(C(=O)NO)cc3)CC2)cc1` (racemic): in the series with MM1.S [1], the pEC50 was 7.96. For the same compound, the remaining at 0.5 h in series [2] is 82%; in series [3], 77%. The inhibition in series [4] amounted to 35.4%. Besides, the figures for the pIC50 in series [5] and in series [6] were 7.23 and 7.24, respectively.
For `O=C(NO)c1coc(CCCN2CCC(CN[C@H]3C[C@@H]3c3ccccc3)CC2)n1` (racemic), in the series with MM1.S [1], the pEC50 was less than 5.00. Moreover, the results for the remaining at 0.5 h in series [2] and in series [3] were 78% and 76%, respectively. Moreover, the inhibition in series [4] is 6.85%. For the same compound, the pIC50 in series [5] was 7.59; in series [6] it was less than 5.00.
As for `O=C(NO)c1ccc(CCCN2CCC(CN[C@H]3C[C@@H]3c3ccc(F)cc3)CC2)cc1` (racemic), the remaining at 0.5 h in series [2] amounted to 54%; in series [3], 66%. In addition, in series [4], the inhibition is 12.7%. For the same compound, the negative logarithm of the IC50 (pIC50) was 8.22 in series [5] and 7.29 in series [6].
The corresponding values for `O=C(NO)c1ccc(CCCN2CCC(CN[C@H]3C[C@@H]3c3ccc(-c4ccc(Cl)cc4)cc3)CC2)cc1` (racemic) are 77%, 81%, 23.6%, 8.70 and 7.72.
The like results for `O=C(NO)c1ccc(CCCN2CCC(CN[C@H]3C[C@@H]3c3ccc(-c4ccc(F)cc4)cc3)CC2)cc1` (racemic) were, in that order, 92%, 75%, 9.74%, 6.09 and 7.23.
Take `O=C(NO)c1ccc(CCCN2CCC(CN[C@H]3C[C@@H]3c3ccc(C(=O)N4CCCCC4)cc3)CC2)cc1` (racemic): the remaining at 0.5 h in series [2] turned out to be 65%; in series [3], 72%. Further, the inhibition in series [4] stood at 53.9%. For the same compound, the pIC50 in series [5] was 7.64.
Regarding `O=C(NO)c1ccc(CN2CCC(CN[C@H]3C[C@@H]3c3ccccc3)CC2)cc1` (racemic), the remaining at 0.5 h in series [2] amounted to 63%; in series [3], 53%. Besides, in series [4], the inhibition stood at 12.9%.
Take `O=C(NO)c1ccc(CCCN2CCC(CN[C@H]3C[C@@H]3c3ccc(-c4ccc(C(F)(F)F)nc4)cc3)CC2)cc1` (racemic): the results for the remaining at 0.5 h in series [2] and in series [3] were 79% and 85%, respectively. Moreover, the inhibition in series [4] amounted to 33.5%. The negative logarithm of the IC50 (pIC50) in series [5] was 7.72; in series [6], 7.00.
On to `Cn1ccc(-c2ccc([C@H]3C[C@@H]3NCC3CCN(CCCc4ccc(C(=O)NO)cc4)CC3)cc2)cc1=O` (racemic), for which the values for the remaining at 0.5 h in series [2] and in series [3] were 73% and 72%, respectively. The inhibition in series [4] was 59.4%. Besides, the pIC50 in series [5] was 7.68; in series [6], 7.34.
Turning to `O=C(NO)c1cnc(CCCN2CCC(CN[C@H]3C[C@@H]3c3ccccc3)CC2)s1` (racemic), the negative logarithm of the EC50 (pEC50) in the series with MM1.S [1] is 7.20. For the same compound, the results for the remaining at 0.5 h in series [2] and in series [3] were 90% and 87%, respectively. Further, in series [4], the inhibition stood at 10.7%. The figures for the pIC50 in series [5] and in series [6] were 7.66 and 6.29, respectively.
On to `O=C(O)c1ccc(CCCN2CCC(CN[C@H]3C[C@@H]3c3ccccc3)CC2)cc1` (racemic), for which, in the series with MM1.S [1], the pEC50 is less than 5.00. The remaining at 0.5 h in series [2] was determined as 63%; in series [3], 80%. The inhibition in series [4] is 8.36%. In addition, the pIC50 in series [6] is less than 5.00.
Take `O=C(O)c1ccc(CN2CCC(CN[C@@H]3C[C@H]3c3ccccc3)CC2)cc1` [GSK2879552]: in the series with MM1.S [7], the inhibition in vivo at 25 mg/kg was determined as 40%.

Source of the values: ChEMBL document CHEMBL4715885, “Novel dual LSD1/HDAC6 inhibitors for the treatment of multiple myeloma” (Bioorg Med Chem Lett, 2021).
